Assay results as given in patent US20250262298A1, “STING MODULATOR COMPOUNDS WITH SULFAMATE LINKAGES, AND METHODS OF MAKING AND USING” (TAKEDA PHARMACEUTICAL COMPANY LIMITED, priority 2018, published 2025).

Tests used:
[1] = test system: THP1-Dual cells (Lucia luciferase under ISG54 promoter); assay: THP-1 Dual Lucia reporter gene assay; assay type: cell-based, human; conditions: Homo sapiens, THP1-Dual, 20 h, luminescence signal induction, 20 hours at 37° C.
Experimental: THP1-Dual™ cells (InvivoGen #thpd-nfis) were derived from the human THP-1 monocyte cell line by stable integration of the Lucia luciferase gene, a secreted luciferase reporter gene, under the control of an ISG54 (interferon-stimulated gene) minimal promoter in conjunction with five interferon (IFN)-stimulated response elements. On the day of experiment, the cells were plated to a black, 384-well plate (Corning 356697) at 7500 cells/25 μl per well density in growth media (RPMI 1640, 2 mM L-glutamine, 25 mM HEPES, 10% heat-inactivated fetal bovine serum, 100 μg/mL Normocin™, 50 U/mL-50 μg/mL Pen-Strep, 10 μg/mL of blasticidin, and 100 μg/mL of Zeocin). The cell plates were dosed with 62.5 nL of the testing compounds, and then incubated at 37° C. for 20 hours. At the end of the incubation, 15 μL/well of the QUANTI-Luc™ (InvivoGen #rep-qlc1) were added, and luminescence was measured immediately using the LeadSeeker.
For the assay method described above, test compound percent luminescence signal induction, at various concentrations, was calculated relative to untreated and DMSO only treated samples. Compound concentration versus percent signal induction curves were fitted to generate EC50 values. One skilled in the art will appreciate that the values generated as EC50 values are subject to experimental variation.

[2] = target: Human STING (Homo sapiens (Human), UniProt Q86WV6, H232R); assay: Human STING TR-FRET assay; assay type: binding; conditions: human STING residues 140-379 (H232R), 100 nM; fluorescein labeled ligand 100 nM; 60 minutes at rt
Sequence of Human STING (Q86WV6 140-379 H232R): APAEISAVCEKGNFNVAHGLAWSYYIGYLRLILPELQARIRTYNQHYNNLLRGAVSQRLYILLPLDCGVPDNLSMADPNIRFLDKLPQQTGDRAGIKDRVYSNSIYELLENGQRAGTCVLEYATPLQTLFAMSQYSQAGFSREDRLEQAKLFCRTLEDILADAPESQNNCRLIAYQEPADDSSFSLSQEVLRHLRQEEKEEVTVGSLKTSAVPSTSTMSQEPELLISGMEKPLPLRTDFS
Experimental: Human STING (accession number GB:BC047779) DNA encoding residues 140-379 (H232R) was cloned into pET28 as N-terminal HIS and C-terminal Avi tagged fusion protein, and a rTEV cleavage site between HIS tag and STING. The sequence was verified before recombinant protein expression using E. coli expression system.
For expression, STING expression vector was transformed into BL21(DE3) cells. The expression was induced by adding IPTG and expressing in 16° C. for 20 hours.
For purification, STING was purified by Nickel affinity resin (Thermo Scientific #25215), followed by TEV enzyme cleavage and Superdex 200 column (GE Healthcare #28-9893-35) purification. For site directed in vitro biotinylation, purified Avi-tagged STING protein was incubated with Biotin (SUPELCO #47868), ATP (SIGMA #A-7699) and BirA enzyme, followed by further purification through a Superdex 200 column (GE Healthcare #28-9893-35). Biotinylation was confirmed by Mass Spectrometry analysis.
40 nL of test compounds in DMSO were added to wells in a white, 384 well microtitre plate (Greiner 784075). 2 uL STING assay buffer (PBS and 0.01% BSA) containing fluorescein labeled ligand (c[G(2′,5′)p-2′-Fluo-AHC-A(3′,5′)p]-Biolog C 195, 100 nM final) and Tb labeled Streptavidin (Streptavidin-Tb cryptate-CisBio 610SATLB) were added. Then 2 uL STING assay buffer containing STING protein (100 nM final) was added and the mixture was incubated at rt for 60 minutes. The plates were then read on a BMG PheraStar Plus reader (LanthaScreen module).
For the assay method described above, test compound percent inhibition, at various concentrations, was calculated relative to untreated and DMSO only treated samples. Compound concentration versus percent inhibition curves were fitted to generate IC50 values. One skilled in the art will appreciate that the values generated either as percentage inhibition at a single concentration or IC50 values are subject to experimental variation.

For Nc1nc2c(ncn2[C@@H]2O[C@@H]3COP(=O)(O)O[C@H]4[C@@H](F)[C@H](n5cnc6c(N)ncnc65)O[C@@H]4CNS(=O)(=O)O[C@@H]2C3)c(=O)[nH]1 [Compound I-18, 2-amino-9-[(5S,7R,8R,12aR,14R,15R,15aR)-14-(6-amino-9H-purin-9-yl)-15-fluoro-2-hydroxy-2,10,10-trioxidodecahydro-5,8-methanofuro[2,3-m][1,3,6,9,10,11,2]tetraoxathiazaphosphacyclotetradecin-7-yl]-1,9-dihydro-6H-purin-6-one], the EC50 [1] was 1 to 10 µM and the IC50 [2] was < 1 µM.
